Key:
[1] = test system: Jurkat (human T-cell leukemia) cells; test: Reduction in cell viability, Jurkat cells (Table 6); assay type: cell-based; details: 50% reduction in cell viability
Source text: The IC50 values indicate the concentrations of avicin D/compound 8 required to induce a 50% reduction in call viability. These studies were done in Jurkat (human T-cell leukemia) cells and have been described previously in Haridas et al., 2001, which is incorporated herein by reference.

[2] = test system: BT549; test: MTT growth inhibition, BT549; assay type: cell-based; details: BT549 cells, 72 hrs
Description: (§1) The growth inhibitory effects of avicin D and oxetane derivative were measured using the MTT [3-(4,5-dimethylthiazol-2-yl)-2,5-diphenyl tetrazolium bromide] reduction assay as described in Haridas et al. (2001). Cells were cultured with varying concentrations of avicin D or oxetane in 96-well plates for 72 hrs at 37° C. At the end of 72 hrs, cells were stained with MTT for 2 hrs and then incubated with lysis buffer (20% SDS in 50% N,N-dimethylformamide) for another 6 hrs. Optical density at 570 nm was used as a measure of cell viability.
(§2) The cell lines 769P, A498, CAKI-1, and CAKI-2 are derived from primary human renal-cell cancers (RCC). A549 is a human lung adenocarcinoma epithelial cell line. B16F10 is a mouse melanoma cell line. BT474, BT 474 M1, BT549, MCF7, […], and ZR751 are breast cancer cell lines. CCRF-CEM, Jurkat, and MOLT4 are leukemia cell lines. HELA is cell line derived from cervical caner. HepG2 is a human hepatocellular liver carcinoma cell line. JeKo-1 is a mantle cell lymphoma (MCL) cell line. LnCAP is a cell line was established from a metastatic lesion of human prostatic adenocarcinoma. MM.1 and RPMI-8226 are human multiple myeloma cell lines. OVCAR3 and SKOV3 are ovarian cancer cell lines. Panc-1 is a pancreatic cancer cell line. PC3 is a prostate cancer cell line. Raji is a Burkitt's lymphoma cell line. RL is a non-Hodgkin's lymphoma cell line. […]

[3] = test system: CCRF-CEM; test: MTT growth inhibition, CCRF-CEM; assay type: cell-based; details: CCRF-CEM cells, 72 hrs
Description: as §1, §2

[4] = test system: PC3; test: MTT growth inhibition, PC3; assay type: cell-based; details: PC3 cells, 72 hrs
Description: as §1, §2

[5] = test system: JEKO-1; test: MTT growth inhibition, JEKO-1; assay type: cell-based; details: JEKO-1 cells, 72 hrs
Description: as §1, §2

[6] = test system: adiponectin; details: adipocytes; cited from earlier work
[7] = test system: HMLE cells expressing TWIST; test: Mammosphere formation, cancer stem cell model; assay type: cell-based, human; details: 60 nM, added day 7 and every 7th day, seen on day 21
Description: Human mammary epithelial cells were transfected with transcription factor TWIST acquiring mesenchymal stem cell-like traits, including the ability to form mammospheres. See Cano et al., 2000; Yang et al., Cell, 2004; Mani et al., 2008, which are all incorporated herein by reference.
HMLE cells expressing TWIST were plated at 100 cells/0.1 ml in 96-well plates. The cells were cultured in MEGM media supplemented with 20 ng/mL bFGF, 10 ng/mL EGF, 4 ug/mL heparin, and 1% methyl cellulose. Formation of spheres could be seen around day 7. Avicin D/Compound 8 (60 nM) was first added to the cultures on day 7 and subsequently every 7th day. […] See FIGS. 6A-D, which show mammospheres treated with 60 nM of Avicin D or Compound 8 for fourteen days. The ability of these agents to induce cell kill in both the tumor cell population as well as the stem-like cells enhances their potential for use as a cancer therapy.

[8] = test system: Raji; test: MTT growth inhibition, Raji; assay type: cell-based; details: Raji cells, 72 hrs
Description: as §1, §2

[9] = test system: RL; test: MTT growth inhibition, RL; assay type: cell-based; details: RL cells, 72 hrs
Description: as §1, §2

[10] = test system: 769P; test: MTT growth inhibition, 769P; assay type: cell-based, human; details: 769P cells, 72 hrs
Description: as §1, §2

[11] = test system: B16F10; test: MTT growth inhibition, B16F10; assay type: cell-based, mouse; details: B16F10 cells, 72 hrs
Description: as §1, §2

[12] = test system: HS27; test: MTT growth inhibition, HS27; assay type: cell-based; details: HS27 human foreskin fibroblast cells, 72 hrs
Description: as §1, §2

[13] = test system: LnCAP; test: MTT growth inhibition, LnCAP; assay type: cell-based, human; details: LnCAP cells, 72 hrs
Description: as §1, §2

[14] = test system: 3T3-L1 cells; details: cited from earlier work
[15] = test system: 3T3 L1; test: MTT growth inhibition, 3T3 L1; assay type: cell-based; details: 3T3 L1 fibroblast cells, 72 hrs
Description: as §1, §2

[16] = test system: CAKI-1; test: MTT growth inhibition, CAKI-1; assay type: cell-based, human; details: CAKI-1 cells, 72 hrs
Description: as §1, §2

`C=C[C@](C)(O)CC/C=C(\CO)C(=O)O[C@H]1[C@H](O)[C@@H](O)[C@H](O[C@@](C)(C=C)CC/C=C(\CO)C(=O)O[C@H]2C[C@]3(C(=O)O[C@@H]4O[C@H](CO)[C@@H](O)[C@H](O)[C@H]4O[C@@H]4O[C@@H](C)[C@H](O[C@@H]5O[C@@H](CO)[C@H](O)[C@H]5O)[C@@H](O[C@@H]5O[C@H](CO)[C@@H](O)[C@H](O)[C@H]5O)[C@H]4O)[C@H](O)C[C@]4(C)C(=CC[C@@H]5[C@@]6(C)CC[C@H](O[C@@H]7O[C@H](CO[C@@H]8O[C@H](C)[C@H](O)[C@H](O)[C@H]8O[C@@H]8OC[C@@H](O)[C@H](O)[C@H]8O)[C@@H](O)[C@H](O)[C@H]7NC(C)=O)C(C)(C)[C@@H]6CC[C@]54C)[C@@H]3CC2(C)C)O[C@@H]1C` [Avicin D] showed an IC50 [1] of 180 nM, an IC50 [2] of 4800 nM and an IC50 [3] of 5500 nM. For the same compound, the IC50 [4] was 440 nM, the IC50 [5] was 420 nM and the “expression and secretion of adiponectin” value [6] was “increased the expression and secretion of adiponectin”. For the same compound, the “development of mammospheres as measured by the size of the spheres” value [7] was “appear to inhibit the development of these spheres”, the IC50 [8] was 1270 nM and the IC50 [9] was 310 nM. It also gave an IC50 [10] of 360 nM, an IC50 [11] of 660 nM and an IC50 [12] of 6100 nM. The IC50 [13] was 470 nM, the adipogenesis [14] was “inhibit adipogenesis” and the intracellular triglyceride level [14] was “reduce intracellular triglyceride level in a dose-dependent manner”. The IC50 [15] was 3800 nM and the IC50 [16] was 1120 nM.

Source: US9175030B2, “Derivatives of avicin D and methods of making and using thereof” (priority 2012, dated 2015)
